Reference: patent publication US10989721B2, “Additive channels” (Emulate Inc., priority 2016, dated 2021)
Entries after “also recorded” stand apart in the source; their conditions may differ. Counter-ions that a name gives are not always drawn. Positions of bridges follow the written chain, without caps; N, C: chain ends. Non-standard residues stand in square brackets, D forms with d. Residues, ends and D or L forms follow the SMILES beside them. hArg = N=C(N)NCCCC[C@H](N)C(=O)O; Mpa = O=C(O)CCS

Assays:
Assay type in all cases: cell-based, human
fibrin = experiment: Vessel-On-Chip blood perfusion: fibrin deposition by fluorescent fibrinogen imaging; conditions: for fibrin deposition on the endothelium compared to untreated blood: hu5C8 240 μg/mL, sCD40L 10 ng/ml, alone or combined, 4 donors, 60 μl/minute
Procedure: (§1) Briefly, human blood was drawn in citrate buffer and used within 4 hours. Platelets were stained using fluorescently labeled non-blocking antibodies for the platelet surface marker CD41 and low dosages of fluorescent fibrinogen were added in order to visualize fibrin deposition. Blood was re-calcified in order to re-establish the full coagulation potential, then introduced in the biomimetic vessel-on-chip from the main inlet (embodiments of inlets shown in FIG. 18A-1, FIG. 18A-2 and FIG. 19C). The outlet of the chip was connected to a pulling syringe pump with a system of tubing and connectors made of medical grade silicon that excludes any metal components or potential causes of platelet activation (FIG. 5A).
(§2) After 14 minutes of perfusion, the flow was interrupted and the chips were immediately imaged via fluorescence microscopy (FIG. 18C and FIG. 19D). In healthy conditions, endothelial cells will provide an antithrombotic surface where blood can flow smoothly, and indeed we detected minimal platelet adhesion or fibrin deposition in our vessel-on-chip after blood perfusion in control conditions, FIG. 18C, Blood.
Cell-monolayer integrity: Transmission light microscopy was routinely used to assess cell-monolayer integrity prior to each experiment. Before every experiment, each one of the endothelialized channels was inspected via light microscopy. Samples showing any sign of discontinuity in the endothelium were discarded. Vascular leakage assay as test for tissue integrity: The ability of cells to form a confluent monolayer was monitored for one week measuring vascular leakage of dextran (ThermoFisher). In order to measure vascular leakage the vascular channel was perfused with cell culture medium containing fluorescent dextran-cascade blue (3 kDa, ThermoFisher). The apical compartment was perfused with plain medium (without FBS). At various time points, the effluent from the chip was collected, and the relative fluorescence of the top and bottom compartments were measured using a standard plate reader. […] TNF-alpha Stimulation: In some experiment endothelial cells were stimulate with 50 ng/ml of TNF (Sigma) for 6 hours in order to induce vascular inflammation before blood perfusion. Experiments with Blood: Blood Samples And Endothelium: Citrated human blood (Research Blood Components, Cambridge, Mass.) was used within 4 hours of a blood draw in order to minimize pre-analytical effects on platelet function. Before every experiment, each one of the endothelialized channels (i.e. microchannels having an endothelial cell layer) was inspected via light microscopy. Samples showing any sign of discontinuity in the endothelium were discarded. […] USA) was at room temperature for 20 minutes. […]

platelets = experiment: Vessel-On-Chip blood perfusion: platelet coverage/aggregation by fluorescence imaging (CD41 label); conditions: for platelet aggregate formation compared to untreated blood: hu5C8 240 μg/mL, sCD40L 10 ng/ml, alone or combined, 4 donors, 60 μl/minute
Procedure: as §1, §2
Cell-monolayer integrity: Transmission light microscopy was routinely used to assess cell-monolayer integrity prior to each experiment. Before every experiment, each one of the endothelialized channels was inspected via light microscopy. Samples showing any sign of discontinuity in the endothelium were discarded. Vascular leakage assay as test for tissue integrity: The ability of cells to form a confluent monolayer was monitored for one week measuring vascular leakage of dextran (ThermoFisher). In order to measure vascular leakage the vascular channel was perfused with cell culture medium containing fluorescent dextran-cascade blue (3 kDa, ThermoFisher). The apical compartment was perfused with plain medium (without FBS). At various time points, the effluent from the chip was collected, and the relative fluorescence of the top and bottom compartments were measured using a standard plate reader. […] TNF-alpha Stimulation: In some experiment endothelial cells were stimulate with 50 ng/ml of TNF (Sigma) for 6 hours in order to induce vascular inflammation before blood perfusion. Experiments with Blood: Blood Samples And Endothelium: Citrated human blood (Research Blood Components, Cambridge, Mass.) was used within 4 hours of a blood draw in order to minimize pre-analytical effects on platelet function. Before every experiment, each one of the endothelialized channels (i.e. microchannels having an endothelial cell layer) was inspected via light microscopy. Samples showing any sign of discontinuity in the endothelium were discarded. […] USA) was at room temperature for 20 minutes. Cloning, Expression and Purification: Generation of IgG2σ was previously described (Vafa, O. et al. An engineered Fc variant of an IgG eliminates all immune effector functions via structural perturbations. Methods 65:114-126 (2014)). 5c8 human IgG1 and human IgG2-Sigma Fc variants were produced in Sino Biological Inc. Gene fragments encoding the 5c8 heavy and light chains were synthesized and cloned into mammalian expression vectors. DNA was produced and used in transient transfections with HEK293. Antibodies were purified using Protein A affinity chromatography and formulated in phosphate-buffered saline (DPBS), pH 7.4. Blood Pre-treatment and Perfusion: Formation of IC (preformed IC): Hu5C8, IgG2σ (control) (both provided by Janssen or provided as described herein) For studies with preformed IC, Hu5C8 or IgG2σ as an isotype control were combined with sCD40L (Tonbo Biosciences, San Diego, Calif.) in PBS, in a ratio of 1 molecule of sCD40L to 3000 molecules of antibody. After 20 minutes incubation at room temperature, the solution was diluted in a blood sample to reach the final concentration of 240 μg/ml (Hu5C8) and 10 ng/ml (sCD40L). […]

re-calcified blood = experiment: On-chip anticoagulation of outflowing re-calcified blood through the anticoagulant port; conditions: sodium citrate introduced through the anticoagulant port next to the outflow port
Description: In order to functionally test the system, re-calcified blood was perfused through the inlet while anticoagulant, e.g. citrate buffer, was introduced online from the port situated next to the outflow port. Thus, blood obtained from the effluent of chips equipped with the anticoagulant port or without anticoagulant port were compared (FIG. 6). From a qualitative point of view the difference was striking.
In order to functionally test the additive channel (i.e. microfluidic chamber(s)) attached to the outflow port of a Vessel-On-Chip, re-calcified blood was perfused through the inlet port while citrate was introduced online from a port situated next to the outflow port, flowing through the additive channel. Thus, blood obtained from the effluent of chips equipped with the anticoagulant port (additive channel) or without anticoagulant port were compared (FIG. 6). From a qualitative point of view the difference was striking.

ICAM1 = ICAM1 immunostaining of endothelium on-chip; conditions: TNF-α 50 ng/ml, 6 hours
Description: ICAM1 is shown with examples identified by white arrows. One example of a DAN stained nuclei is shown inside of a white circle.
Diverse structural characteristics of blood clots induced by the two experimental stimuli were captured via scanning electron microscopy (SEM) as colored images in FIG. 18D.

[1] = system: thrombin anti-thrombin complex (TAT); experiment: Thrombin anti-thrombin (TAT) ELISA in plasma from chip effluent; conditions: outflow samples; TNF-α pre-treatment of endothelium, or sCollagen or hu5C8/sCD40L in blood before perfusion
Procedure: Thrombin converts fibrinogen into fibrin during clot formation, and anti-thrombin plays a role in maintaining homeostasis by inhibiting the effect of thrombin. Formation of TAT in the microdevice confirms that local and intrinsic generation of thrombin, a potent platelet agonist, occurs in the model and that counter regulatory mechanisms for coagulation are retained. Thus, blood sampled from the Vessel-On-Chip was analyzed for thrombin anti-thrombin complex (TAT), an accepted clinical biomarker for procoagulation^48,49. […] An enzyme-linked immunosorbent assay (ELISA) was used to quantify the thrombin anti-thrombin complex (TAT).
Thrombin-Anti Thrombin (TAT) measurement via ELISA: Thrombin Anti-Thrombin (TAT) levels were analyzed in plasma from blood flowing out of the chip device by removing a sample from the outflow port. Thus TAT levels were evaluated in sample effluents collected from the outflow port of the chip using the Human TAT ELISA Kit (Siemens Healthineers) according to the user manual.
Blood sampled from the Vessel-On-Chip outflow port was analyzed for thrombin anti-thrombin complex (TAT), a factor released upon activation of the coagulation cascade and one of the biomarkers associated with thrombotic events occurring in patients affected with deep vein thrombosis (DVT) or SLE^45,46. […]

[2] = system: hu5C8-mediated thrombosis; experiment: hu5C8-mediated thrombosis on-chip, FcγRIIa dependence (platelet coverage, fibrin deposition, TAT); conditions: with sCD40L 10 ng/ml, IV.3 1 μg/ml pre-block of FcγRIIa, or IgG2σ variant in place of hu5C8
Description: Recent studies conducted on humanized mice expressing the human Fcγ receptors (FCGR2A) have shown that this receptor plays a role in thrombosis leading to the IC-mediated toxicity^12,16,21. […] In order to investigate if the IC5c8-induced thrombosis that we observed in our vessel-on-chip system also relies on an Fc-mediated mechanism, we used two different tool molecules: IgG2σ and IV.3 (FIG. 25A). The IgG2σ variant of hu5C8 has an engineered Fe region^48 that eliminates affinity for the FcγRIIa, while the monoclonal antibody IV.3 is a blocking antibody binding to FcγRIIa. Briefly, equimolar concentrations of IgG2σ or hu5c8 were incubated with 10 ng/ml of sCD40L for 20 minutes to form ICIgG2σ or IC5c8, respectively.
Some of the blood samples were treated with IV.3 (1 μg/ml) for 10 minutes to block the FcγRIIa, and then incubated for 20 more minutes with IC5c8. Finally, blood alone (control) or blood incubated with IC5c8, ICIgG2σ or IV.3 was perfused through the biomimetic microfluidic-on-chip for about 10 minutes. We tested 15 donors and all the tested conditions described above were tested in duplicates and analyzed as percentage of platelet coverage based on fluorescence microscopic imaging (FIG. 25B). Five of the donors were also tested for fibrin deposition (FIG. 25C). Finally, effluents plasma obtained from a total of 7 of the donors (including the 5 mentioned before) were used to assess TAT via ELISA (FIG. 25D). […]
Blood from several human donors were aliquoted into groups for the following treatments: controls (PBS), sCD40L, combined hu5C8/sCD40L, combined hu5C8 (IgG2σ)/sCD40L combined, and combined hu5C8/sCD40L/IV.3. Each condition was tested with a minimum of 3 donors to a maximum of 15 donors, and all conditions were tested in duplicates and analyzed for platelet coverage (FIG. 25B), fibrin deposition (FIG. 25C), or increased formation of TAT measured in the eluates (FIG. 25D). […]

[3] = TNF-α 50 ng/ml 6 hours endothelial pre-treatment or sCollagen 10 μg/ml in blood, vs blood alone

## N=C(N)NCCCC[C@@H]1NC(=O)CCSSC[C@@H](C(N)=O)NC(=O)[C@@H]2CCCN2C(=O)[C@H](Cc2c[nH]c3ccccc23)NC(=O)[C@H](CC(=O)O)NC(=O)CNC1=O [Eptifibatide] ([Mpa][hArg]GDWPC-NH2; disulfide 1-7)
fibrin; Eptifibatide 2 ug/ml, samples treated with TNF-α, n=4
  fibrin signal (image analysis): still detectable
platelets; adding Eptifibatide, n=4 donors (FIG. 18E)
  effects of pro-thrombotic conditions (TNF-α, sCollagen) on platelet coverage and fibrin deposition: suppressed

## O=C(O)CC(O)(CC(=O)O)C(=O)O [sodium citrate]
re-calcified blood
  state of blood collected at the end of each experiment: soluble (not clotted)

## TNF-α
fibrin; [3]
  fibrin signal intensity: increased
platelets; [3]
  areas of platelet coverage: increased
ICAM1
  expression of ICAM1 in the endothelium compared to the control: increased expression
[1]
  levels of TAT: significantly increased; also recorded: elevated

## hu5C8: humanized monoclonal IgG1 antibody against CD40L (anti-CD154)
fibrin
  fibrin deposition on the endothelium compared to untreated blood: no significant treatment-related effects
platelets
  platelet aggregate formation compared to untreated blood: no significant treatment-related effects

## sCD40L: soluble CD40 ligand; recombinant human sCD40 Ligand
fibrin
  fibrin deposition on the endothelium compared to untreated blood: no significant treatment-related effects
platelets
  platelet aggregate formation compared to untreated blood: no significant treatment-related effects
platelets; sCD40L alone, Example 5
  increase in platelet coverage over untreated control, some donors: about 2 fold
  mean increase in platelet coverage compared to controls: not statistically significant

B1: hu5C8 (IgG2σ): IgG2σ variant of hu5C8 with engineered Fc region that eliminates affinity for FcγRIIa (antibody, chains of the INN, looked up, V domains shown)
VH: QVQLVQSGAEVVKPGASVKLSCKASGYIFTSYYMYWVKQAPGQGLEWIGEINPSNGDTNFNEKFKSKATLTVDKSASTAYMELSSLRSEDTAVYYCTRSDGRNDMDSWGQGTLVTVSS
VL: DIVLTQSPATLSVSPGERATISCRASQRVSSSTYSYMHWYQQKPGQPPKLLIKYASNLESGVPARFSGSGSGTDFTLTISSVEPEDFATYYCQHSWEIPPTFGGGTKLEIK
modifications: IgG2σ engineered Fc lacking FcγRIIa binding
[2]
  hu5C8-mediated thrombosis on-chip (platelet coverage, fibrin deposition, TAT): did not show signs of thrombosis
[2]; listed as IgG2σ
  hu5C8-mediated thrombosis on-chip (platelet coverage, fibrin deposition, TAT): suppressed
[2]; listed as hu5C8-IgG2σ
  hu5C8-mediated thrombosis on-chip (platelet coverage, fibrin deposition, TAT): not detected
